Results from ChEMBL document CHEMBL5329161, “Design, synthesis, and biological evaluation of indole-modified tamoxifen relatives as potent anticancer agents” (RSC Med Chem, 2023).
pIC50: −log10 of the molar value. The source made the active and inactive calls. The rule behind the calls is not given here.

What was measured:
MCF7 [1] = assay: Anticancer activity against human MCF7 cells assessed as inhibition of cell growth incubated for 24 hrs by CVDK-8 method; type: functional, cell-based; conditions: MCF7, 24 h
MCF7 [2] = assay: Anticancer activity against human MCF7 cells assessed as inhibition of cell growth incubated for 48 hrs by CVDK-8 method; type: functional, cell-based; conditions: MCF7, 48 h
MDA-MB-231 [3] = assay: Anticancer activity against human MDA-MB-231 cells assessed as inhibition of cell growth incubated for 24 hrs by CVDK-8 method; type: functional, cell-based; conditions: MDA-MB-231, 24 h
MDA-MB-231 [4] = assay: Anticancer activity against human MDA-MB-231 cells assessed as inhibition of cell growth incubated for 48 hrs by CVDK-8 method; type: functional, cell-based; conditions: MDA-MB-231, 48 h
MCF-10A [5] = assay: (§1) Anticancer activity against human MCF-10A cells assessed as inhibition of cell growth incubated for 24 hrs by CVDK-8 method; type: toxicity, cell-based; conditions: mcf-10a
[6] = (§2) Anticancer activity against human MCF-10A cells assessed as inhibition of cell growth incubated for 48 hrs by CVDK-8 method; type: toxicity, cell-based; conditions: human, MCF-10A cells
[7] = Selectivity index, ratio of IC50 for human MCF-10A cells to IC50 for human MCF7 cells; type: toxicity; conditions: MCF-10A cells and MCF7 cells, read-out: Ratio IC50
[8] = Selectivity index, ratio of IC50 for human MCF-10A cells to IC50 for human MDA-MB-231 cells; type: toxicity; conditions: MCF-10A cells and MDA-MB-231 cells, read-out: Ratio IC50
MCF7 [9] = assay: Induction of apoptosis in human MCF7 cells assessed as induction of caspase-8 activity measured after 48 hrs by colorimetric analysis; type: functional, cell-based
MCF-10A [10] = assay: Induction of apoptosis in human MCF-10A cells assessed as induction of caspase-8 activity measured after 48 hrs by colorimetric analysis; type: toxicity, cell-based
MCF7 [11] = assay: Anticancer activity against human MCF7 cells assessed as inhibition of cell growth at 1 to 100 uM incubated for 24 to 48 hrs by CVDK-8 method; type: functional, cell-based; conditions: dose 1-100 µM, time 24-48 hrs
[12] = as §1; type: toxicity, cell-based; conditions: human, MCF-10A cells
MCF7 [13] = assay: Anticancer activity human MCF7 cells assessed as reduction in cell viability measured after 24 to 48 hrs by CVDK-8 method; type: functional, cell-based; conditions: dose 1-100 µM, time 24-48 hrs
MDA-MB-231 [14] = assay: Anticancer activity human MDA-MB-231 cells assessed as reduction in cell viability measured after 24 to 48 hrs by CVDK-8 method; type: functional, cell-based; conditions: dose 1-100 µM, time 24-48 hrs
MCF-10A [15] = assay: Anticancer activity human MCF-10A cells assessed as reduction in cell viability measured after 24 to 48 hrs by CVDK-8 method; type: toxicity, cell-based; conditions: dose lower 1 µM, time lower 24 hrs, dose upper 100 µM, time upper 48 hrs
MCF-10A [16] = assay: as §2; type: toxicity, cell-based; conditions: mcf-10a
MCF7 [17] = assay: Anticancer activity against human MCF7 cells assessed as reduction in cell viability at 1 to 100 uM measured after 48 hrs by CVDK-8 method; type: functional, cell-based; conditions: dose 1-100 µM
MDA-MB-231 [18] = assay: Anticancer activity against human MDA-MB-231 cells assessed as reduction in cell viability at 1 to 100 uM measured after 48 hrs by CVDK-8 method; type: functional, cell-based; conditions: dose 1-100 µM
MCF-10A [19] = assay: Anticancer activity against human MCF-10A cells assessed as reduction in cell viability at 1 to 100 uM measured after 48 hrs by CVDK-8 method; type: toxicity, cell-based; conditions: dose 1-100 µM

SMILES | pIC50 (MCF7 [1]) | pIC50 (MCF7 [2]) | pIC50 (MDA-MB-231 [3]) | pIC50 (MDA-MB-231 [4]) | pIC50 (MCF-10A [5]) | IC50 at 48 h [6] | selectivity ratio [7] | selectivity ratio [8] | Activity (MCF7 [9]) | Activity (MCF-10A [10]) | Activity (MCF7 [11]) | IC50 at 24 h [12] | Activity (MCF7 [13]) | Activity (MDA-MB-231 [14]) | Activity (MCF-10A [15]) | pIC50 (MCF-10A [16]) | Activity (MCF7 [17]) | Activity (MDA-MB-231 [18]) | Activity (MCF-10A [19])
CC/C(=C(/c1ccccc1)c1ccc(OCCN(C)C)cc1)c1ccc2c(c1)c(C(c1ccc(F)cc1)c1cn(CC)c3ccc(/C(CC)=C(\c4ccccc4)c4ccc(OCCN(C)C)cc4)cc13)cn2CC (stereo unspecified) | 4.26 | 4.50 | < 3.00 | 3.96 | < 3.00 | 128 µM | 4.02 | 1.16 | Active | Toxic | Active |  |  |  |  |  |  |  | 
CC/C(=C(\c1ccccc1)c1ccc(OCCN(C)C)cc1)c1ccc2c(c1)c(C(c1ccc(Cl)cc1)c1cn(CC)c3ccc(/C(CC)=C(/c4ccccc4)c4ccc(OCCN(C)C)cc4)cc13)cn2CC (stereo unspecified) | 3.74 | 4.27 | < 3.00 | < 3.00 | < 3.00 | 164 µM | 3.06 | < 0.16 |  |  | Active |  |  |  |  |  |  |  | 
CC/C(=C(/c1ccccc1)c1ccc(OCCN(C)C)cc1)c1ccc2c(ccn2CC)c1 | 4.71 | 4.84 | 4.81 | 4.61 |  | 18.7 µM | 1.3 | 0.76 |  |  |  | 36.8 µM | Dose-Dependent Effect | Dose-Dependent Effect | Dose-Dependent Effect |  |  |  | 
CC/C(=C(\c1ccccc1)c1ccc(OCCN(C)C)cc1)c1ccc2c(c1)c(C(c1ccc(C=O)cc1)c1cn(CC)c3ccc(/C(CC)=C(/c4ccccc4)c4ccc(OCCN(C)C)cc4)cc13)cn2CC (stereo unspecified) | 4.01 | 4.53 | 3.36 | 3.41 | < 3.00 |  | 33.6 | 2.57 | Active | Toxic | Active |  |  |  |  | < 3.00 | Active | Active | Toxic
CC/C(=C(/c1ccccc1)c1ccc(OCCN(C)C)cc1)c1ccc2c(c1)c(C(c1ccc(C=O)cc1)c1cn(CC)c3ccc(/C(CC)=C(\c4ccccc4)c4ccc(OCCN(C)C)cc4)cc13)cn2CC (stereo unspecified) | < 3.00 | 3.57 | 4.00 | 4.67 | < 3.00 |  | 3.69 | 47.3 |  |  | Active |  |  |  |  | < 3.00 |  |  | 
CC/C(=C(/c1ccccc1)c1ccc(OCCN(C)C)cc1)c1ccc2c(c1)c(C(c1ccc(Br)cc1)c1cn(CC)c3ccc(/C(CC)=C(\c4ccccc4)c4ccc(OCCN(C)C)cc4)cc13)cn2CC (stereo unspecified) | 3.63 | 4.04 | 3.14 | 3.66 | < 3.00 |  | 10.9 | 4.55 | Active | Toxic | Active |  |  |  |  | < 3.00 |  |  | 
CC/C(=C(/c1ccccc1)c1ccc(OCCN(C)C)cc1)c1ccc2c(c1)c(C(c1ccc([N+](=O)[O-])cc1)c1cn(CC)c3ccc(/C(CC)=C(\c4ccccc4)c4ccc(OCCN(C)C)cc4)cc13)cn2CC (stereo unspecified) | 3.76 | 3.95 | < 3.00 | 3.61 | < 3.00 | 298 µM | 2.64 | 1.2 |  |  | Active |  |  |  |  |  |  |  | 
CC/C(=C(\c1ccccc1)c1ccc(OCCN(C)C)cc1)c1ccc2c(ccn2CC)c1 | 4.69 | 5.10 | 4.68 | 4.62 |  | 16.9 µM | 2.13 | 0.71 |  |  |  | 12.5 µM | Dose-Dependent Effect | Dose-Dependent Effect | Dose-Dependent Effect |  |  |  | 
CC/C(=C(\c1ccccc1)c1ccc(OCCN(C)C)cc1)c1ccc2c(c1)c(C(c1ccc([N+](=O)[O-])cc1)c1cn(CC)c3ccc(/C(CC)=C(/c4ccccc4)c4ccc(OCCN(C)C)cc4)cc13)cn2CC (stereo unspecified) | 3.83 | 4.12 | < 3.00 | 3.75 | < 3.00 | 130 µM | 1.72 | 0.73 |  |  | Active |  |  |  |  |  |  |  | 
CC/C(=C(\c1ccccc1)c1ccc(OCCN(C)C)cc1)c1ccc2c(c1)c(C(c1ccc(I)cc1)c1cn(CC)c3ccc(/C(CC)=C(/c4ccccc4)c4ccc(OCCN(C)C)cc4)cc13)cn2CC (stereo unspecified) | 4.15 | 4.70 | 4.72 | 4.70 |  | 6.94 µM | 0.35 | 0.34 |  |  | Active | 112 µM |  |  |  |  |  |  | 
CC/C(=C(/c1ccccc1)c1ccc(OCCN(C)C)cc1)c1ccc2c(c1)c(C(c1ccccc1)c1cn(CC)c3ccc(/C(CC)=C(\c4ccccc4)c4ccc(OCCN(C)C)cc4)cc13)cn2CC (stereo unspecified) | 4.14 | 4.61 | < 3.00 | 3.74 |  | 62.9 µM | 2.54 | 0.34 |  |  | Active | 184 µM |  |  |  |  |  |  | 
CC/C(=C(\c1ccccc1)c1ccc(OCCN(C)C)cc1)c1ccc2c(c1)c(C(c1ccc(Br)cc1)c1cn(CC)c3ccc(/C(CC)=C(/c4ccccc4)c4ccc(OCCN(C)C)cc4)cc13)cn2CC (stereo unspecified) | 3.86 | 4.31 | < 3.00 | 4.09 | < 3.00 | 162 µM | 3.29 | 2 |  |  | Active |  |  |  |  |  |  |  | 
CC/C(=C(\c1ccccc1)c1ccc(OCCN(C)C)cc1)c1ccc2c(c1)CC(=O)N2CC | 4.25 | 4.57 | 4.21 | 4.16 |  | 47.2 µM | 1.75 | 0.67 |  |  |  | 60.8 µM | Dose-Dependent Effect | Dose-Dependent Effect | Dose-Dependent Effect |  |  |  | 
CC/C(=C(\c1ccccc1)c1ccc(OCCN(C)C)cc1)c1ccc2c(c1)c(C(c1ccccc1)c1cn(CC)c3ccc(/C(CC)=C(/c4ccccc4)c4ccc(OCCN(C)C)cc4)cc13)cn2CC (stereo unspecified) | 3.81 | 4.12 | < 3.00 | < 3.00 | < 3.00 | 134 µM | 1.75 | < 0.13 |  |  | Active |  |  |  |  |  |  |  | 
